Assay results as given in PMC3834928, “SNEDDS Containing Poorly Water Soluble Cinnarizine; Development and in Vitro Characterization of Dispersion, Digestion and Solubilization” (Pharmaceutics, 2012).
Values after ≈ are worked out from the molar mass of the structure shown.

Tests used:
[1] = Solubility of cinnarizine in SNEDDSs, excipients and buffer (excess drug, end-over-end rotation, HPLC); assay type: physicochemical
Procedure: An excess of cinnarizine was added to the SNEDDSs, selected excipients (sesame oil and oleic acid) and 100 mM TRIS maleate buffer, pH 6.5. The resulting suspensions were placed in an end-over-end rotating device protected from light at 25 °C for the SNEDDSs and at 37 °C for the excipients and buffer; the temperatures were selected for storage purpose and for its physiological relevance, respectively. Samples were withdrawn at specified time points, i.e., 28, 50, and 72 h for the SNEDDSs, 22 h and 48 h for the excipients, and at 51 h and 75 h for the buffer. Samples were centrifuged at 15,000 rpm for 45 min (Biofuge 15, Hereaus-Sepatech, Oterode, Germany). Between two and three drops of supernatant were weighed in a 10 mL volumetric flask and diluted with ethanol. This solution was further diluted with mobile phase to an appropriate concentration. Samples from the buffer were diluted with mobile phase. Quantification of cinnarizine was performed as described in the analytical section. The determination of solubility was considered attained when samples from two consecutive time points varied by less than 5%. The solubilities were determined in triplicate.
(§1) The concentration of cinnarizine was determined using a HPLC method. A HPLC system (Hitachi, Merck, Darmstadt, Germany) equipped with a D-7000 interface, an L-7200 autosampler, a L-7100 pump, a L-7300 column oven (35 °C), and a L-7400 UV detector or a L-7480 fluorescence detector. Data was processed by using HPLC System Manager Version 4.0 from Merck (Darmstadt, Germany). Chromatographic separation was obtained using a Luna C18 150 × 4.6 mm, 5 µm, column and a C18 guard column (Phenomenex, Torrance, CA, USA). The mobile phase consisted of 50% (v/v) acetonitrile and 50% (v/v) 20 mM ammonium dihydrogen phosphate monobasic buffer, pH 4.5. The temperature of the column was maintained at 35 °C and the flow rate and injection volume were 1 mL/min and 25 µL, respectively. The UV detection was carried out at 253 nm and quantification was performed from peak areas using a six point linear standard curve ranging from 0.25–4 µg/mL.

[2] = Colloidal dispersion of SNEDDSs in FaSSGF pH 1.6 (USP II apparatus); assay type: physicochemical; settings: FaSSGF pH 1.6, 37 °C, during the experiment (60 min), all four SNEDDSs
Procedure: as §1
Colloidal dispersion studies were performed in 250 mL fasted-state, simulated gastric fluid (FaSSGF) at pH 1.6. […] A quantity of 1 g of each SNEDDS containing 25 mg cinnarizine was weighed on a watch glass, and the glass with formulation was gently slid down the vessel wall to the bottom of the dissolution vessel and thereby introduced into the dispersion medium. […]

[3] = log POct/W; cited from earlier work
[4] = cited from earlier work
[5] = cited from earlier work; remark: listed apart in the source
[6] = set-up: method as in PMID 7616366; settings: dogs, n = 4, mean ± SEM; cited from earlier work

solubility ([1]; 100 mM TRIS maleate buffer pH 6.5, 37 °C, n = 3, read-out: Aqueous solubility (37 °C)) | Cinnarizine solubility in SNEDDS I ([1]; in SNEDDS I preconcentrate, 25 °C, mean ± SD (n = 3)) | Cinnarizine solubility in SNEDDS II ([1]; in SNEDDS II preconcentrate, 25 °C, mean ± SD (n = 3)) | Cinnarizine solubility in SNEDDS III ([1]; in SNEDDS III preconcentrate, 25 °C, mean ± SD (n = 3)) | Cinnarizine solubility in SNEDDS IV ([1]; in SNEDDS IV preconcentrate, 25 °C, mean ± SD (n = 3)) | Cinnarizine solubility in oleic acid ([1]; in oleic acid, 37 °C, mean ± SD (n = 3)) | Cinnarizine solubility in sesame oil ([1]; in sesame oil, 37 °C, mean ± SD (n = 3)) | Precipitation of cinnarizine during colloidal dispersion [2] | SMILES | Log P [3] | pKa [4] | Cinnarizine solubility in oleic acid (previous study) ([5]; in oleic acid, 25 °C) | Solubility of cinnarizine in water at low pH ([5]; pH 1.3) | Bioavailability from a conventional capsule [6] | Bioavailability from an aqueous suspension formulation [6] | pKa in water ([4]; in water) | apparent pKa in mixed bile acid/phospholipid micelles ([4]; incorporated into mixed bile acid/phospholipid micelles)
0.39 ± 0.1 µg/mL (≈ 1.06 µM) | 67.4 ± 0.9 mg/g | 58.8 ± 0.5 mg/g | 36.4 ± 0.7 mg/g | 28.3 ± 0.8 mg/g | 335 ± 3 mg/g | 25.7 ± 0.4 mg/g | not observed | C(=C\c1ccccc1)/CN1CCN(C(c2ccccc2)c2ccccc2)CC1 [Cinnarizine, cinnarizine] | 5.77 [16] | 1.95 [18] | 237 mg/g | 853 µg/mL | 0.8% ± 0.4% | 8% ± 4% |  | 
 |  |  |  |  |  |  |  | CCCCCCCC/C=C\CCCCCCCC(=O)O [oleic acid] |  |  |  |  |  |  | 9.85 | 6.5
